Laboratory results published in paper PMC10600247, “Impact of C- and N-terminal protection on the stability, metal chelation and antimicrobial properties of calcitermin” (Scientific Reports, 2023).
Residues, ends and D or L forms follow the SMILES beside them.

Tests used:
[1] = T = 298 K, I = 0.1 M (KCl), charges omitted
Text: Stability constants for proton and metal complexes were obtained from pH-metric titration curves registered at T = 298 K and ionic strength 0.1 M (KCl). The potentiometric apparatus was previously described. Solutions were titrated with 0.1 M carbonate-free KOH. The electrode was daily calibrated for hydrogen ion concentration by titrating HNO3 with the standard base solution, under the same experimental conditions as above. The asymmetry potential and the slope of the electrode couple were computed by means of […][41] and Glee[42] programs. The purities and exact concentrations of the ligand solutions were determined by the Gran method. The […][44] program was employed for the overall formation constant (β) calculations, referred to the following equilibrium equation: pM + qL + rH ⇆ MpLqHr (charges omitted; p is 0 in the case of ligand protonation; r can be negative). The computed standard deviations (referring to random errors only) were given by the program itself and are shown in parentheses as uncertainties on the last significant figure. Hydrolysis constants for metal ions were taken from the literature[45],[46]. The distribution and competition diagrams were computed using the HYSS program.
1. Wild-type calcitermin: thermodynamic data
Wild-type calcitermin (WT) has been previously investigated by our research group in aqueous solutions and ionic medium NaClO4.1 For the sake of comparison, potentiometric studies of WT and its copper and zinc complexes have been performed in a different ionic medium (KCl 0.1 M). The study of the speciation under different experimental conditions, changing ionic medium and metal-ligand ratio, is essential to comprehensively describe the thermodynamics of calcitermin, which is usually found in multicomponent media like biological fluids.
Table S1. Equilibrium constants for protonation of WT and its Cu2+ and Zn2+ complex formation at T = 298 K and I = 0.1 M (KCl). Values in parentheses are standard deviations on the last significant figure.

E. coli (ATCC 25922) = assay: In vitro anti-E. coli CFU assay; type: cell-based, Escherichia coli; settings: pH 5.4; for mean CFU number ± S.D.: per 0.1 mL
Method in brief: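 Peptides (final 0.128, 0.064, 0.032 mg/mL), alone or with ZnCl2 or CuCl2 at M:L 0.9:1, were incubated with 10^3 CFU/well in PBS pH 5.4 plus 1.5% TSB at 37 °C with slow rocking for 3 and 24 h. Aliquots were plated on TSA and CFU counted after 24 h; triplicate.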

[2] = peptide 0.032 mg/mL + CuCl2 (0.9:1), 24 h
[3] = peptide 0.032 mg/mL + ZnCl2 (0.9:1), 24 h
[4] = peptide 0.064 mg/mL + CuCl2 (0.9:1), 24 h
[5] = peptide 0.064 mg/mL + ZnCl2 (0.9:1), 24 h
[6] = peptide 0.128 mg/mL + ZnCl2 (0.9:1), 24 h
[7] = peptide alone 0.032 mg/mL, 24 h
[8] = peptide alone 0.064 mg/mL, 24 h
[9] = peptide alone 0.128 mg/mL, 24 h

CC[C@H](C)[C@H](NC(=O)[C@H](C)NC(=O)[C@@H](N)C(C)C)C(=O)N[C@@H](C)C(=O)N[C@@H](CC(C)C)C(=O)N[C@@H](CCCCN)C(=O)N[C@@H](C)C(=O)N[C@@H](C)C(=O)N[C@@H](Cc1c[nH]cn1)C(=O)N[C@@H](Cc1ccc(O)cc1)C(=O)N[C@@H](Cc1c[nH]cn1)C(=O)N[C@H](C(=O)N[C@@H](Cc1c[nH]cn1)C(=O)N[C@@H](CCCCN)C(=O)N[C@@H](CCC(=O)O)C(=O)O)[C@@H](C)O [WT, VAIALKAAHYHTHKE, reference compound] (H-VAIALKAAHYHTHKE-OH)
logβ [CuH2L] [1]: 33.77(4)
logβ [CuH3L] [1]: 40.77(4)
logβ [CuH4L] [1]: 46.97(3)
logβ [CuH5L] [1]: 52.07(3)
logβ [CuH6L] [1]: 56.40(6)
logβ [CuH-1L] [1]: 6.90(5)
logβ [CuH-3L] [1]: -14.19(5)
logβ [CuHL] [1]: 26.20(4)
logβ [CuL] [1]: 16.83(5)
logβ [ZnH2L] [1]: 28.59(5)
logβ [ZnH3L] [1]: 36.47(5)
logβ [ZnH4L] [1]: 43.55(3)
logβ [ZnH5L] [1]: 49.30(8)
logβ [ZnH-1L] [1]: -0.2(1)
logβ [ZnH-2L] [1]: -10.8(1)
logβ [ZnHL] [1]: 20.11(6)
logβ [ZnL] [1]: 10.35(8)
logK, line of [CuH2L] ([1]; Table S1): 7.00
logK, line of [CuH3L] ([1]; Table S1): 6.21
logK, line of [CuH4L] ([1]; Table S1): 5.09
logK, line of [CuH5L] ([1]; Table S1): 4.34
logK, line of [CuH-1L] ([1]; Table S1): 9.93
logK, line of [CuHL] ([1]; Table S1): 7.58
logK, line of [CuL] ([1]; Table S1): 9.37
logK, line of [ZnH2L] ([1]; Table S1): 7.87
logK, line of [ZnH3L] ([1]; Table S1): 7.08
logK, line of [ZnH4L] ([1]; Table S1): 5.75
logK, line of [ZnH-1L] ([1]; Table S1): 10.5
logK, line of [ZnH-2L] ([1]; Table S1): 10.7
logK, line of [ZnHL] ([1]; Table S1): 8.48
logK, line of [ZnL] ([1]; Table S1): 9.77
CFU decrease/increase with respect to untreated controls (E. coli (ATCC 25922); peptide 0.032 mg/mL + CuCl2 (0.9:1), 3 h, listed as WT calcitermin): -38%
mean CFU number ± S.D. (E. coli (ATCC 25922); peptide 0.032 mg/mL + CuCl2 (0.9:1), 3 h): 505 ± 26 CFU
CFU decrease/increase with respect to untreated controls (E. coli (ATCC 25922); [2]): -21%
mean CFU number ± S.D. (E. coli (ATCC 25922); [2]): 191 ± 23 CFU
CFU decrease/increase with respect to untreated controls (E. coli (ATCC 25922); peptide 0.032 mg/mL + ZnCl2 (0.9:1), 3 h, listed as WT calcitermin): -38%
mean CFU number ± S.D. (E. coli (ATCC 25922); peptide 0.032 mg/mL + ZnCl2 (0.9:1), 3 h): 499 ± 104 CFU
CFU decrease/increase with respect to untreated controls (E. coli (ATCC 25922); [3]): -7%
mean CFU number ± S.D. (E. coli (ATCC 25922); [3]): 224 ± 8 CFU
CFU decrease/increase with respect to untreated controls (E. coli (ATCC 25922); peptide 0.064 mg/mL + CuCl2 (0.9:1), 3 h, listed as WT calcitermin): -56%
mean CFU number ± S.D. (E. coli (ATCC 25922); peptide 0.064 mg/mL + CuCl2 (0.9:1), 3 h): 360 ± 97 CFU
CFU decrease/increase with respect to untreated controls (E. coli (ATCC 25922); [4]): -11%
mean CFU number ± S.D. (E. coli (ATCC 25922); [4]): 215 ± 17 CFU
CFU decrease/increase with respect to untreated controls (E. coli (ATCC 25922); peptide 0.064 mg/mL + ZnCl2 (0.9:1), 3 h, listed as WT calcitermin): -55%
mean CFU number ± S.D. (E. coli (ATCC 25922); peptide 0.064 mg/mL + ZnCl2 (0.9:1), 3 h): 368 ± 18 CFU
CFU decrease/increase with respect to untreated controls (E. coli (ATCC 25922); [5]): +3%
mean CFU number ± S.D. (E. coli (ATCC 25922); [5]): 249 ± 9 CFU
CFU decrease/increase with respect to untreated controls (E. coli (ATCC 25922); peptide 0.128 mg/mL + CuCl2 (0.9:1), 3 h, listed as WT calcitermin): -91.1%
mean CFU number ± S.D. (E. coli (ATCC 25922); peptide 0.128 mg/mL + CuCl2 (0.9:1), 3 h): 72 ± 44 CFU
CFU decrease/increase with respect to untreated controls (E. coli (ATCC 25922); peptide 0.128 mg/mL + CuCl2 (0.9:1), 24 h, listed as WT calcitermin): -82%
mean CFU number ± S.D. (E. coli (ATCC 25922); peptide 0.128 mg/mL + CuCl2 (0.9:1), 24 h): 42 ± 12 CFU
CFU decrease/increase with respect to untreated controls (E. coli (ATCC 25922); peptide 0.128 mg/mL + ZnCl2 (0.9:1), 3 h, listed as WT calcitermin): -91%
mean CFU number ± S.D. (E. coli (ATCC 25922); peptide 0.128 mg/mL + ZnCl2 (0.9:1), 3 h): 74 ± 17 CFU
CFU decrease/increase with respect to untreated controls (E. coli (ATCC 25922); [6]): -8%
mean CFU number ± S.D. (E. coli (ATCC 25922); [6]): 222 ± 16 CFU
CFU decrease/increase with respect to untreated controls (E. coli (ATCC 25922); peptide alone 0.032 mg/mL, 3 h): -12%
mean CFU number ± S.D. (E. coli (ATCC 25922); peptide alone 0.032 mg/mL, 3 h): 718 ± 138 CFU
CFU decrease/increase with respect to untreated controls (E. coli (ATCC 25922); [7]): -7%
mean CFU number ± S.D. (E. coli (ATCC 25922); [7]): 224 ± 21 CFU
CFU decrease/increase with respect to untreated controls (E. coli (ATCC 25922); peptide alone 0.064 mg/mL, 3 h): -19%
mean CFU number ± S.D. (E. coli (ATCC 25922); peptide alone 0.064 mg/mL, 3 h): 659 ± 139 CFU
CFU decrease/increase with respect to untreated controls (E. coli (ATCC 25922); [8]): +14%
mean CFU number ± S.D. (E. coli (ATCC 25922); [8]): 275 ± 16 CFU
CFU decrease/increase with respect to untreated controls (E. coli (ATCC 25922); peptide alone 0.128 mg/mL, 3 h): +42%
mean CFU number ± S.D. (E. coli (ATCC 25922); peptide alone 0.128 mg/mL, 3 h): 1155 ± 270 CFU
CFU decrease/increase with respect to untreated controls (E. coli (ATCC 25922); [9]): -3%
mean CFU number ± S.D. (E. coli (ATCC 25922); [9]): 233 ± 10 CFU
